Measurements reported in US7462598B2, “Antimicrobial theta defensins, analogs thereof, and methods of use” (priority 2002, dated 2008).
Bridge positions count the residues as written; N and C are the ends. Square brackets hold non-standard residues; d marks the D form. Peptide text beside a SMILES is read from it. hSer = N[C@@H](CCO)C(=O)O

Experiments:
[1] = test system: S. aureus 502a, E. coli ML35, C. albicans 16820, and C. neoformans 271a; experiment: Agar diffusion assay, statements across the test organisms; format: cell-based; conditions: against E. coli, FIG. 18A-D
Protocol: Briefly, 10-μl wells were bored in a 9-cm^2 plate of agarose, buffered with 10 mM 1,4-piperazinebis(ethanesulfonic acid) (PIPES), pH 7.4, containing 5 mM glucose, and seeded with 1×10^6 mid-log phase cells. Five-μl aliquots of peptides, dissolved in 0.01% HOAc at 10-300 μg/ml, were added to each well. After incubation at 37° C. for 2 h, the seeded agar was overlaid with molten agarose containing 6% trypticase soy broth (for bacteria) or Sabouraud dextrose broth (for fungi). Plates were incubated at 37° C. for 18-24 h, and antimicrobial activity was determined by measuring the diameter of clearing around each well.

E. coli ML35 [2] = experiment: Cell-suspension microbicidal assay (MMC); format: cell-based, Escherichia coli; conditions: for MMC, E. coli: lowest concentration that reduced cell viability by 99.9%, 10 mM PIPES, 5 mM glucose, pH 7.4, 2 h 37° C.
How it was run: (§1)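 Log-phase microbes (2×10^6 CFU/ml) exposed to two-fold peptide dilutions (0.062-8.0 μg/ml) in 10 mM PIPES, 5 mM glucose, pH 7.4, 2 h at 37 °C, then diluted 1:10 to 1:10^6 in broth and grown 24-48 h. MMC is the lowest concentration giving ≥99.9% killing (no pellet at 1:10^3).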

S. aureus 502a [3] = experiment: Cell-suspension microbicidal assay (MMC); format: cell-based, Staphylococcus aureus; conditions: for MMC, S. aureus: lowest concentration that reduced cell viability by 99.9%, 10 mM PIPES, 5 mM glucose, pH 7.4, 2 h 37° C.
How it was run: as §1

[4] = test system: S. aureus 502a, E. coli ML35, and C. albicans 16820; experiment: Cell-suspension microbicidal assay, statements across the test organisms (lowest MMC, overall ranges); format: cell-based; conditions: for M: peptide concentration that kill 99.9% of either S. aureus, E. coli, or C. albicans, lowest MMC value
How it was run: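 Log-phase organisms (2×10^6 CFU/ml) were exposed for 2 h at 37° C. to peptide (0.062–8.0 μg/ml final) in 10 mM PIPES/5 mM glucose, pH 7.4, then serially diluted in broth and grown 24–48 h. MMC was defined as ≥99.9% killing (no pellet at 1:10^3). SI was calculated as concentration giving 3% hemolysis in PBS divided by lowest MMC.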

E. coli ML35 [5] = experiment: Membrane permeabilization assay (ONPG hydrolysis); format: cell-based, Escherichia coli; conditions: for ONPG hydrolysis: rates at 1 μg/ml concentration of each peptide
How it was run: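 ONPG hydrolysis by log-phase E. coli ML35 (1×10^6 CFU/ml) in 10 mM PIPES pH 7.4 with 3 mM ONPG, peptides at 0-8.0 μg/ml final; A405 followed for 60 min. Control: 0-4 μg/ml peptide incubated with recombinant β-galactosidase and 3 mM ONPG.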

[6] = target: T1, recombinant β-galactosidase (Escherichia coli, UniProt P00722); experiment: Inhibition of purified β-galactosidase (ONPG hydrolysis); format: biochemical
T1 construct: gift from Dr. Donald P. Satchell, University of California, Irvine, Department of Pathology
Protocol: Dose-dependent rates of ONPG hydrolysis were determined using 10 nM of purified β-galactosidase.
The effect of each peptide on β-galactosidase-dependent ONPG hydrolysis was determined by incubating 0-4 μg/ml of each peptide with recombinant β-galactosidase (a gift from Dr. Donald P. Satchell, University of California, Irvine, Department of Pathology) and 3 mM ONPG as described above.

C. albicans 16820 = experiment: Cell-suspension microbicidal assay (MMC); format: cell-based, Candida albicans; conditions: for MMC, C. albicans: lowest concentration that reduced cell viability by 99.9%, 10 mM PIPES, 5 mM glucose, pH 7.4, 2 h 37° C.
How it was run: as §1

E. coli ML35 [7] = experiment: Bactericidal activity in divalent cations (CaCl2, MgCl2); format: cell-based, Escherichia coli
Protocol: (§2) To determine the effects of serum, salt, calcium chloride and magnesium chloride on microbicidal activities, peptide activities were determined in assays containing varying ionic strength, divalent cations, and serum. The effect of serum on staphylocidal activity of each peptide was determined by incubating 1×10^6 CFU/ml of S. aureus 502a with increasing peptide concentrations (0.5-4 μg/ml) in 10 mM PIPES, pH 7.4, containing 10% normal human serum for 2 h at 37° C. The effect of sodium chloride on staphylocidal activities was assessed with 5 μg/ml of each peptide in 10 mM PIPES, pH 7.4, containing varying concentrations of sodium chloride (0-160 mM). Effects of divalent cations, CaCl2, or MgCl2 (0-5.6 mM) were assessed in microbicidal assays against E. coli ML35. Bactericidal activities were determined by colony counting (see Example II), and microbicidal potencies were expressed as percent killing as follows:
(§3) [formula] where A=surviving bacteria (CFU/ml) after initial incubation with each peptide in buffer containing serum, salt, or divalent cations and Ao=bacterial CFU/ml in the “no-peptide” controls.

S. aureus 502a [8] = format: cell-based, Staphylococcus aureus; conditions: 502a
Protocol: Dose-dependent staphylocidal activity of each peptide was determined in assays containing 10% normal human serum. Percentages of killing are relative to activities of peptide-containing incubations in which serum was omitted.
as §2, §3

S. aureus 502a [9] = format: cell-based, Staphylococcus aureus; conditions: physiologic salt / various concentrations of salt; FIG. 6
Protocol: The activity of each peptide (5 μg/ml) was determined in assays containing increasing concentrations of sodium chloride. Staphylocidal activities were expressed as percentages of killing obtained in the absence of additional NaCl.
as §2, §3

T1 sequence (P00722 2-1024): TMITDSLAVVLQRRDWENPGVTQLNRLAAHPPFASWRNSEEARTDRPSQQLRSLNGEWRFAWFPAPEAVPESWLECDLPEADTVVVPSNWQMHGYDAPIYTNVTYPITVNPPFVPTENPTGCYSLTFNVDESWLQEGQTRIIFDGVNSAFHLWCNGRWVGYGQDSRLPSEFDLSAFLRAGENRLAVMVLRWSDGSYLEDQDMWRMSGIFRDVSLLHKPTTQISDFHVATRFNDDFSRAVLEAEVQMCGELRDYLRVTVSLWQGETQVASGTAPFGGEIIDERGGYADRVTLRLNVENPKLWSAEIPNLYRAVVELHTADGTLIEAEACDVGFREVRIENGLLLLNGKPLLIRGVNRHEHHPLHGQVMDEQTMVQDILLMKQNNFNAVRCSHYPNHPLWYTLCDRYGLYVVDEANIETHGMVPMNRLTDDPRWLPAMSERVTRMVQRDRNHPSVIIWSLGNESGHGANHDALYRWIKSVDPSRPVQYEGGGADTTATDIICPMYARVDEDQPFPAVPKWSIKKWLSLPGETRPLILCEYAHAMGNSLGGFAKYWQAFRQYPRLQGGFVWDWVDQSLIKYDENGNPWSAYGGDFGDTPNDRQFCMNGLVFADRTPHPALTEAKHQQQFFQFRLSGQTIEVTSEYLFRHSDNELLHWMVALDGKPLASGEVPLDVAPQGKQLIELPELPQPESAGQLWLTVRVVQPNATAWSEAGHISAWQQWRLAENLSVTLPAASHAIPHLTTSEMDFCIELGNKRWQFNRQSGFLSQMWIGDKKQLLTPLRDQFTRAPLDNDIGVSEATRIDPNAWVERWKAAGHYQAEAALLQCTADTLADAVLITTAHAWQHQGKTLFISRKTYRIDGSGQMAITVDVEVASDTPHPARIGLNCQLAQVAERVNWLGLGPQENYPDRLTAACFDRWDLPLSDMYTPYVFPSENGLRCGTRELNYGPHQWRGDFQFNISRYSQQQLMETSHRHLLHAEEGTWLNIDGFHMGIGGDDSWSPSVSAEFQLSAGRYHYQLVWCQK

Structure (SMILES)	antimicrobial activity compared with synthetic / native RTD-1 [1]	MMC, E. coli (E. coli ML35 [2])	MMC, S. aureus (S. aureus 502a [3])	M [4]	ONPG hydrolysis (E. coli ML35 [5])	MMC, C. albicans (C. albicans 16820)	also measured
CC[C@H](C)[C@@H]1NC(=O)[C@@H]2CSSC[C@H](NC(=O)[C@H](CCCNC(=N)N)NC(=O)[C@@H](NC(=O)[C@H](Cc3ccccc3)NC(=O)CN)CSSC[C@@H](C(=O)N[C@H](C(=O)N[C@@H](CCCNC(=N)N)C(=O)N[C@@H](CCO)C(=O)O)[C@@H](C)O)NC1=O)C(=O)N[C@@H](CC(C)C)C(=O)N[C@H]1CSSC[C@H](NC(=O)[C@H](C(C)C)NC(=O)CNC(=O)[C@H](CCCNC(=N)N)NC(=O)[C@H](CCCNC(=N)N)NC1=O)C(=O)N[C@@H](CCCNC(=N)N)C(=O)N2 [aRTD-1-Hse] (H-GFCRCLCRRGVCRCICTR[hSer]-OH; disulfide 3-16, 5-14, 7-12 (inferred); N-terminus and C-terminus assumed)	more antimicrobial than native RTD-1	–	–	–	–	–	–
CC(C)[C@@H]1NC(=O)[C@@H]2CSSC[C@H](NC(=O)[C@H](CCCNC(=N)N)NC(=O)[C@@H](NC(=O)CNC(=O)CN)CSSC[C@@H](C(=O)N[C@@H](CCCNC(=N)N)C(=O)N[C@@H](CCCNC(=N)N)C(N)=O)NC1=O)C(=O)N[C@@H](Cc1ccc(O)cc1)C(=O)N[C@H]1CSSC[C@H](NC(=O)[C@H](Cc3ccccc3)NC(=O)[C@H](CCCNC(=N)N)NC(=O)[C@H](CCCNC(=N)N)NC(=O)[C@H](CCCNC(=N)N)NC1=O)C(=O)N[C@@H](C(C)C)C(=O)N2 [3cys 2:2 PG-1-NH] (H-GGCRCYCRRRFCVCVCRR-NH2; disulfide 3-16, 5-14, 7-12; N-terminus assumed)	–	1.0 µg/mL	0.3 µg/mL	0.25 µg/mL	15.3 (A405/sec) · 10^−5	1.5 µg/mL	fold higher activity against S. aureus than 3cys 3:1 PG-1-NH (S. aureus 502a [3]; from MMC, Table 2): 6-7 fold; inhibition of β-galactosidase activity ([6]; peptide 0-4 μg/ml, concentration not given, FIG. 10): potent inhibitor; fold higher activity against C. albicans than 3cys 3:1 PG-1-NH (C. albicans 16820; from MMC, Table 2): 2-3 fold
CC(C)C[C@H](NC(=O)[C@@H]1CSSC[C@H](NC(=O)[C@H](CCCNC(=N)N)NC(=O)[C@H](C)NC(=O)[C@@H](NC(=O)CNC(=O)[C@@H](N)CCCNC(=N)N)C(C)C)C(=O)N[C@@H](CC(C)C)C(=O)N[C@H]2CSSC[C@H](NC(=O)[C@H](C(C)C)NC(=O)CNC(=O)[C@H](CCCNC(=N)N)NC(=O)[C@H](CCCNC(=N)N)NC2=O)C(=O)N[C@@H](CCCNC(=N)N)C(=O)N1)C(=O)N[C@@H](C)C(=O)N[C@@H](CCCNC(=N)N)C(N)=O [5:3 aRTD-3-NH] (H-RGVARCLCRRGVCRCLAR-NH2; disulfide 6-15, 8-13; N-terminus assumed)	–	–	1.0 µg/mL	1 µg/mL	3.9 (A405/sec) · 10^−5	2.3 µg/mL	fold lower activity against E. coli than RTD-3 and PG-1 (E. coli ML35 [2]; from MMC, Table 2): 2-3 fold; effect of divalent cations on bactericidal activity (in words) (E. coli ML35 [7]; various concentrations of divalent cations): completely inhibited; inhibition of bactericidal activity in serum (S. aureus 502a [8]): 20-50%; fold lower activity against C. albicans than RTD-3 and PG-1 (C. albicans 16820; from MMC, Table 2): 2-3 fold
CC[C@H](C)[C@@H]1NC(=O)[C@@H]2CSSC[C@H](NC(=O)[C@H](CCCNC(=N)N)NC(=O)[C@@H]3CSSC[C@H](NC1=O)C(=O)N[C@@H]([C@@H](C)O)C(=O)N[C@@H](CCCNC(=N)N)C(=O)NCC(=O)N[C@@H](Cc1ccccc1)C(=O)N3)C(=O)N[C@@H]([C@@H](C)CC)C(=O)N[C@H]1CSSC[C@H](NC(=O)[C@H](Cc3ccccc3)NC(=O)CNC(=O)[C@H](CCCNC(=N)N)NC(=O)[C@H]([C@@H](C)O)NC1=O)C(=O)N[C@@H](CCCNC(=N)N)C(=O)N2 [RTD-2] (cyclo(CICTRGFCRCICTRGFCR); disulfide 1-10, 3-8, 12-17)	–	2.3 µg/mL	1.5 µg/mL	1.5 µg/mL	6.3 (A405/sec) · 10^−5	3.0 µg/mL	reduction of the rate of ONPG hydrolysis on addition of RTD-2 (E. coli ML35 [5]; RTD-2 1.0 μg/ml final added after 30 min to E. coli permeabilized with 1 μg/ml RTD-1, FIG. 11B): approximately 30%; reduction of the rate of ONPG hydrolysis by purified β-galactosidase ([6]; 2 μg/ml, relative to incubations without peptide): 80%
CC[C@H](C)[C@@H]1NC(=O)[C@@H]2CSSC[C@H](NC(=O)[C@H](CCCNC(=N)N)NC(=O)[C@@H](NC(=O)[C@H](Cc3ccccc3)NC(=O)CN)CSSC[C@@H](C(=O)N[C@H](C(=O)N[C@@H](CCCNC(=N)N)C(=O)O)[C@@H](C)O)NC1=O)C(=O)N[C@@H]([C@@H](C)CC)C(=O)N[C@H]1CSSC[C@H](NC(=O)[C@H](Cc3ccccc3)NC(=O)CNC(=O)[C@H](CCCNC(=N)N)NC(=O)[C@H]([C@@H](C)O)NC1=O)C(=O)N[C@@H](CCCNC(=N)N)C(=O)N2 [aRTD-2-OH] (H-GFCRCICTRGFCRCICTR-OH; disulfide 3-16, 5-14, 7-12; N-terminus assumed)	–	–	1.5 µg/mL	1.5 µg/mL	4.3 (A405/sec) · 10^−5	3.0 µg/mL	effect of salt on microbicidal activity (in words) (S. aureus 502a [9]): most inhibited; fold reduction of potency against E. coli versus native cyclic peptide (E. coli ML35 [2]; versus RTD-2): at least 3 fold; inhibition of bactericidal activity by calcium chloride (E. coli ML35 [7]; physiologic concentration of calcium chloride (1.4 mM)): completely ablated; 99.9% kill against one of the bacterial organisms ([4]; at 8 μg/ml, the highest concentration tested): did not achieve a 99.9% kill
CC[C@H](C)[C@@H]1NC(=O)[C@@H]2CSSC[C@H](NC(=O)[C@H](CCCNC(=N)N)NC(=O)[C@@H]3CSSC[C@H](NC1=O)C(=O)N[C@@H]([C@@H](C)O)C(=O)N[C@@H](CCCNC(=N)N)C(=O)NCC(=O)N[C@@H](Cc1ccccc1)C(=O)N3)C(=O)N[C@@H](CC(C)C)C(=O)N[C@H]1CSSC[C@H](NC(=O)[C@H](C(C)C)NC(=O)CNC(=O)[C@H](CCCNC(=N)N)NC(=O)[C@H](CCCNC(=N)N)NC1=O)C(=O)N[C@@H](CCCNC(=N)N)C(=O)N2 [recombinant RTD-1] (cyclo(GFCRCLCRRGVCRCICTR); disulfide 3-16, 5-14, 7-12)	virtually indistinguishable	–	–	–	–	–	–
